Measurements reported in patent US20140007865A1, “OLOPATADINE NASAL SPRAY REGIMEN FOR CHILDREN” (Alcon Research, Ltd., priority 2009, published 2014).

Assay: Acid-base equilibrium (pKa) of olopatadine
Type: physicochemical
Excerpt: Olopatadine has both a carboxylic functional group (pKa1=4.18) and a tertiary amino group (pKa2=9.79). It exists in different ionic forms depending upon the pH of the solution. Olopatadine exists predominantly as a zwitterion in the pH range between the two pKa values with a negatively-charged carboxylic group and a positively-charged tertiary amino group. The iso-electric point of the olopatadine zwitterion is at pH 6.99. At a pH lower than pKa1, cationic olopatadine (with ionized tertiary amino group) is dominant. At a pH higher than pKa2, anionic olopatadine (with ionized carboxylic group) is dominant.

## CN(C)CC/C=C1/c2ccccc2COc2ccc(CC(=O)O)cc21 [Olopatadine, Z-11-(3-dimethylaminopropylidene)-6,1′-dihydrodibenz[b,e]oxepine-2-acetic acid]
  iso-electric point of the olopatadine zwitterion: 6.99 pH
  pKa1 (carboxylic functional group): 4.18
  pKa2 (tertiary amino group): 9.79
